Legend:
Assay in all cases: relative viability (nuclei count vs DMSO), 5 days (fraction); higher = more cells survive
[1] = compound: COc1cccc2cc(-c3nc([C@H]4CC[C@H](C(=O)O)CC4)n4ncnc(N)c34)[nH]c12 [OSI-027] + Cc1nc(Nc2ncc(C(=O)Nc3c(C)cccc3Cl)s2)cc(N2CCN(CCO)CC2)n1 [Dasatinib] (partner 0.075 µM)
Outline: (§1)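 Lung cancer cell lines were pin-tool dosed in 1536-well plates on the day after seeding, with either a lone drug or a fixed anchor-drug dose plus five library-drug doses (not always all listed) in √10 steps. Nuclei were counted on 4× images after 5 days. Relative viability is the ratio of treated-well to vehicle-well nuclei counts, with each value a median of duplicate plates.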

[2] = compound: Cc1nc(NC(=O)N2CCC[C@H]2C(N)=O)sc1-c1ccnc(C(C)(C)C(F)(F)F)c1 [Alpelisib] + CC(=O)c1c(C)c2cnc(Nc3ccc(N4CCNCC4)cn3)nc2n(C2CCCC2)c1=O [Palbociclib] (partner 0.5 µM)
Outline: as §1

[3] = compound: Cc1nc(NC(=O)N2CCC[C@H]2C(N)=O)sc1-c1ccnc(C(C)(C)C(F)(F)F)c1 [Alpelisib] + N=C(N)NC(=N)NCCc1ccccc1 [Phenformin] (partner 250 µM)
Outline: as §1

[4] = compound: COc1cccc2cc(-c3nc([C@H]4CC[C@H](C(=O)O)CC4)n4ncnc(N)c34)[nH]c12 [OSI-027] + CC1(C)CCC(c2ccc(Cl)cc2)=C(CN2CCN(c3ccc(C(=O)NS(=O)(=O)c4ccc(N[C@H](CCN5CCOCC5)CSc5ccccc5)c(S(=O)(=O)C(F)(F)F)c4)cc3)CC2)C1 [Navitoclax] (partner 0.5 µM)
Outline: as §1

Cell Line: ChaGo-K-1
- relative viability ([1]; first compound 0.01 µM): 0.515
- relative viability ([1]; first compound 0.03162 µM): 0.618
- relative viability ([1]; first compound 0.1 µM): 0.5
- relative viability ([1]; first compound 0.3162 µM): 0.549
- relative viability ([1]; first compound 1 µM): 0.474
- relative viability ([2]; first compound 0.04 µM): 0.958
- relative viability ([2]; first compound 0.1265 µM): 0.965
- relative viability ([2]; first compound 0.4 µM): 1
- relative viability ([2]; first compound 1.265 µM): 0.747
- relative viability ([2]; first compound 4 µM): 0.584
- relative viability ([3]; first compound 0.04 µM): 0.495
- relative viability ([3]; first compound 0.1265 µM): 0.495
- relative viability ([3]; first compound 0.4 µM): 0.453
- relative viability ([3]; first compound 1.265 µM): 0.435
- relative viability ([3]; first compound 4 µM): 0.346
- relative viability ([4]; first compound 0.01 µM): 0.988
- relative viability ([4]; first compound 0.03162 µM): 1.4
- relative viability ([4]; first compound 0.1 µM): 0.533
- relative viability ([4]; first compound 0.3162 µM): 0.759
- relative viability ([4]; first compound 1 µM): 0.713

Cell Line: EBC-1
- relative viability ([4]; first compound 0.01 µM): 0.382
- relative viability ([4]; first compound 0.03162 µM): 0.33
- relative viability ([4]; first compound 0.1 µM): 0.432
- relative viability ([4]; first compound 0.3162 µM): 0.239
- relative viability ([4]; first compound 1 µM): 0.203

Cell Line: EKVX
- relative viability ([1]; first compound 0.01 µM): 0.516
- relative viability ([1]; first compound 0.03162 µM): 0.472
- relative viability ([1]; first compound 0.1 µM): 0.515
- relative viability ([1]; first compound 0.3162 µM): 0.429
- relative viability ([1]; first compound 1 µM): 0.316
- relative viability ([2]; first compound 0.04 µM): 0.349
- relative viability ([2]; first compound 0.1265 µM): 0.325
- relative viability ([2]; first compound 0.4 µM): 0.386
- relative viability ([2]; first compound 1.265 µM): 0.313
- relative viability ([2]; first compound 4 µM): 0.242
- relative viability ([3]; first compound 0.04 µM): 0.234
- relative viability ([3]; first compound 0.1265 µM): 0.229
- relative viability ([3]; first compound 0.4 µM): 0.253
- relative viability ([3]; first compound 1.265 µM): 0.225
- relative viability ([3]; first compound 4 µM): 0.192
- relative viability ([4]; first compound 0.01 µM): 0.954
- relative viability ([4]; first compound 0.03162 µM): 0.873
- relative viability ([4]; first compound 0.1 µM): 1.01
- relative viability ([4]; first compound 0.3162 µM): 0.807
- relative viability ([4]; first compound 1 µM): 0.44

Cell Line: EMC-BAC-2
- relative viability ([1]; first compound 0.01 µM): 0.296
- relative viability ([1]; first compound 0.03162 µM): 0.311
- relative viability ([1]; first compound 0.1 µM): 0.308
- relative viability ([1]; first compound 0.3162 µM): 0.249
- relative viability ([1]; first compound 1 µM): 0.225
- relative viability ([2]; first compound 0.04 µM): 0.5
- relative viability ([2]; first compound 0.1265 µM): 0.481
- relative viability ([2]; first compound 0.4 µM): 0.505
- relative viability ([2]; first compound 1.265 µM): 0.348
- relative viability ([2]; first compound 4 µM): 0.324
- relative viability ([3]; first compound 0.04 µM): 0.539
- relative viability ([3]; first compound 0.1265 µM): 0.482
- relative viability ([3]; first compound 0.4 µM): 0.498
- relative viability ([3]; first compound 1.265 µM): 0.44
- relative viability ([3]; first compound 4 µM): 0.34
- relative viability ([4]; first compound 0.01 µM): 1.17
- relative viability ([4]; first compound 0.03162 µM): 1.05
- relative viability ([4]; first compound 0.1 µM): 1.12
- relative viability ([4]; first compound 0.3162 µM): 1.06
- relative viability ([4]; first compound 1 µM): 0.436

Cell Line: EPLC-272H
- relative viability ([1]; first compound 0.01 µM): 0.336
- relative viability ([1]; first compound 0.03162 µM): 0.314
- relative viability ([1]; first compound 0.1 µM): 0.36
- relative viability ([1]; first compound 0.3162 µM): 0.268
- relative viability ([1]; first compound 1 µM): 0.102
- relative viability ([2]; first compound 0.04 µM): 0.289
- relative viability ([2]; first compound 0.1265 µM): 0.333
- relative viability ([2]; first compound 0.4 µM): 0.324
- relative viability ([2]; first compound 1.265 µM): 0.291
- relative viability ([2]; first compound 4 µM): 0.267
- relative viability ([3]; first compound 0.04 µM): 0.303
- relative viability ([3]; first compound 0.1265 µM): 0.267
- relative viability ([3]; first compound 0.4 µM): 0.351
- relative viability ([3]; first compound 1.265 µM): 0.279
- relative viability ([3]; first compound 4 µM): 0.244
- relative viability ([4]; first compound 0.01 µM): 1.07
- relative viability ([4]; first compound 0.03162 µM): 0.901
- relative viability ([4]; first compound 0.1 µM): 1.18
- relative viability ([4]; first compound 0.3162 µM): 0.897
- relative viability ([4]; first compound 1 µM): 1.04

Cell Line: H3255
- relative viability ([1]; first compound 0.01 µM): 0.291
- relative viability ([1]; first compound 0.03162 µM): 0.377
- relative viability ([1]; first compound 0.1 µM): 0.388
- relative viability ([1]; first compound 0.3162 µM): 0.292
- relative viability ([1]; first compound 1 µM): 0.217
- relative viability ([2]; first compound 0.04 µM): 0.333
- relative viability ([2]; first compound 0.1265 µM): 0.321
- relative viability ([2]; first compound 0.4 µM): 0.333
- relative viability ([2]; first compound 1.265 µM): 0.296
- relative viability ([2]; first compound 4 µM): 0.264
- relative viability ([3]; first compound 0.04 µM): 0.352
- relative viability ([3]; first compound 0.1265 µM): 0.375
- relative viability ([3]; first compound 0.4 µM): 0.336
- relative viability ([3]; first compound 1.265 µM): 0.25
- relative viability ([3]; first compound 4 µM): 0.335
- relative viability ([4]; first compound 0.01 µM): 0.411
- relative viability ([4]; first compound 0.03162 µM): 0.483
- relative viability ([4]; first compound 0.1 µM): 0.442
- relative viability ([4]; first compound 0.3162 µM): 0.428
- relative viability ([4]; first compound 1 µM): 0.227

Cell Line: HARA
- relative viability ([1]; first compound 0.01 µM): 0.227
- relative viability ([1]; first compound 0.03162 µM): 0.247
- relative viability ([1]; first compound 0.1 µM): 0.25
- relative viability ([1]; first compound 0.3162 µM): 0.253
- relative viability ([1]; first compound 1 µM): 0.209
- relative viability ([2]; first compound 0.04 µM): 0.295
- relative viability ([2]; first compound 0.1265 µM): 0.25
- relative viability ([2]; first compound 0.4 µM): 0.257
- relative viability ([2]; first compound 1.265 µM): 0.172
- relative viability ([2]; first compound 4 µM): 0.156
- relative viability ([3]; first compound 0.04 µM): 0.48
- relative viability ([3]; first compound 0.1265 µM): 0.451
- relative viability ([3]; first compound 0.4 µM): 0.555
- relative viability ([3]; first compound 1.265 µM): 0.331
- relative viability ([3]; first compound 4 µM): 0.301
- relative viability ([4]; first compound 0.01 µM): 1.18
- relative viability ([4]; first compound 0.03162 µM): 1.26
- relative viability ([4]; first compound 0.1 µM): 1.24
- relative viability ([4]; first compound 0.3162 µM): 1.34
- relative viability ([4]; first compound 1 µM): 0.354

Cell Line: HCC-15
- relative viability ([1]; first compound 0.01 µM): 0.551
- relative viability ([1]; first compound 0.03162 µM): 0.656
- relative viability ([1]; first compound 0.1 µM): 0.624
- relative viability ([1]; first compound 0.3162 µM): 0.486
- relative viability ([1]; first compound 1 µM): 0.366
- relative viability ([2]; first compound 0.04 µM): 0.749
- relative viability ([2]; first compound 0.1265 µM): 0.702
- relative viability ([2]; first compound 0.4 µM): 0.773
- relative viability ([2]; first compound 1.265 µM): 0.617
- relative viability ([2]; first compound 4 µM): 0.551
- relative viability ([3]; first compound 0.04 µM): 0.5
- relative viability ([3]; first compound 0.1265 µM): 0.434
- relative viability ([3]; first compound 0.4 µM): 0.45
- relative viability ([3]; first compound 1.265 µM): 0.372
- relative viability ([3]; first compound 4 µM): 0.274
- relative viability ([4]; first compound 0.01 µM): 0.713
- relative viability ([4]; first compound 0.03162 µM): 0.689
- relative viability ([4]; first compound 0.1 µM): 0.676
- relative viability ([4]; first compound 0.3162 µM): 0.611
- relative viability ([4]; first compound 1 µM): 0.374

Cell Line: HCC-44
- relative viability ([2]; first compound 0.04 µM): 0.98
- relative viability ([2]; first compound 0.1265 µM): 0.921
- relative viability ([2]; first compound 0.4 µM): 0.988
- relative viability ([2]; first compound 1.265 µM): 0.881
- relative viability ([2]; first compound 4 µM): 0.913
- relative viability ([3]; first compound 0.04 µM): 0.248
- relative viability ([3]; first compound 0.1265 µM): 0.174
- relative viability ([3]; first compound 0.4 µM): 0.187
- relative viability ([3]; first compound 1.265 µM): 0.141
- relative viability ([3]; first compound 4 µM): 0.161
- relative viability ([4]; first compound 0.01 µM): 0.966
- relative viability ([4]; first compound 0.03162 µM): 0.982
- relative viability ([4]; first compound 0.1 µM): 0.96
- relative viability ([4]; first compound 0.3162 µM): 0.833
- relative viability ([4]; first compound 1 µM): 0.383

— the supplement of paper PMC10307832
